Test results: US7084176B2, “N-arylphenylacetamide derivatives and medicinal compositions containing the same” (Dainippon Pharmaceutical Co., Ltd., priority 2001, dated 2006)
Read-outs that look alike come from different tables or passages of the source.

Experiments:
[1] = test system: Jcl:SD strain male rats; experiment: Study of pungency (eye wiping test); type: in vivo; details: a drop into the eye of rats, counted for 3 minutes, average ± S.E.M.
Protocol: Experiment 2: Study of Pungency (Eye Wiping Test)
The pungency of the test compounds were studied referring to the method of Jancso et al. [Acta Physiol. Acad. Sci. Hung., 19, 113–131 (1961)] and the method of Szallasi et al. [Brit. J. Pharmacol., 119, 283–290 (1996)]. A test compound was dissolved in a physiological saline solution containing 10% ethanol and 10% Tween 80 into various concentrations (μg/ml), and a drop of the solution thereof was added dropwise into the eye of Jcl:SD strain male rats (5 to 25 […] per group, body weight; 220 to 280 g). Then, the number of the protective wiping movements with forefoot was counted for 3 minutes, and was considered as an index for pungency. The test results are expressed as average value±S.E.M., and the statistical significant differences between each test compound-treated group and the control group were analyzed using non-parametric Dunnett's multiple range test, and p<0.05 was considered as significant difference.

[2] = test system: male Std:ddY mice; experiment: Phenyl-1,4-benzoquinone-induced writhing test; type: in vivo; details: for ED50 / ED50 (mg/kg sc) / ED50 (mg/kg po): logit analysis; for inhibition in vivo at 1 mg/kg / inhibition in vivo at 10 mg/kg: 1 h; for inhibition in vivo at 1 mg/kg: subcutaneously administered at a dose of 1 mg/kg
Protocol: Phenyl-1,4-benzoquinone-induced Writhing Test Referring to the method disclosed in Proc. Soc. exp. Biol. […] For oral administration, a test compound was suspended in 0.5% tragacanth solution. […] In the control group, a physiological saline solution containing 10% Tween 80 and 10% ethanol was administered in the case of subcutaneous administration, or a 0.5% tragacanth solution was administered in the case of oral administration. The number of writhing movements in the test compound-treated group was compared with that in the control group, and the writhing inhibitory percentage was calculated therefrom and considered as an analgesic effect. Writhing inhibitory percentage (%)=[(A−B)/A]×100 In the above equation, A means the number of writhing movements in the control group, and B means the number of writhing movements in the test compound-treated group. From the writhing inhibitory percentage of the test compound, ED50 (mg/kg) was calculated by logit analysis.

[3] = Mus musculus, po, oral administration, writhing inhibition, read-out: ED50 (mg/kg po)
[4] = Mus musculus, sc, 60 minutes before PBQ, read-out: Inhibitory percentage (%)
[5] = Mus musculus, sc, subcutaneous administration, writhing inhibition, read-out: ED50 (mg/kg sc)
[6] = Mus musculus, po, orally administered at a dose of 10 mg/kg, 60 minutes before PBQ, read-out: Inhibitory percentage (%)

With `COc1cc(CNC(=O)CCCC/C=C/C(C)C)ccc1O` [Capsaicin, trans-8-methyl-N-vanillyl-6-nonenamide, reference compound] the “Number of wiping movements” value ([1]; concentration 1 μg/ml) was 6.0 ± 0.8, the “Number of wiping movements” value ([1]; concentration 2 μg/ml) was 7.8 ± 1.4 and the “Number of wiping movements” value ([1]; concentration 5 μg/ml) was 11.2 ± 3.0. For the same molecule, the “Number of wiping movements” value ([1]; concentration 5 μg/ml, listed as capsaicin) was “significantly increased”, the “Number of wiping movements” value ([1]; concentration 10 μg/ml) was 26.4 ± 6.0 and the “Number of wiping movements” value ([1]; concentration 20 μg/ml) was 38.0 ± 4.8. It also gave an ED50 [2, 3] of over 30 mg/kg, an inhibition in vivo at 30 mg/kg ([2]; Mus musculus, po, orally administered at a dose of 30 mg/kg, read-out: Inhibitory percentage (%)) of 20.6% and an inhibition in vivo at 1 mg/kg [2, 4] of 46.6%. It also gave an ED50 [2, 5] of 1.15 mg/kg.
With `COc1cc(CC(=O)Nc2cccc(C3CCC(C(C)(C)C)CC3)c2)ccc1O` (stereo not shown) [Example 20, N-[3-(4-tert-butylcyclohexan-1-yl)phenyl]-4-hydroxy-3-methoxyphenylacetamide] the “Number of wiping movements” value ([1]; concentration 100 μg/ml) was 5.0 ± 1.3, the “Number of wiping movements” value ([1]; concentration 500 μg/ml) was 10.6 ± 0.7 and the inhibition in vivo at 10 mg/kg [2, 6] was 97.1%. For the same molecule, the ED50 [2, 3] was 1.28 mg/kg, the inhibition in vivo at 1 mg/kg [2, 4] was 96.1% and the ED50 [2, 5] was at most 0.1 mg/kg. For the same molecule, the “ED50 (mg/kg sc)” value ([2]; subcutaneous administration, writhing inhibition, listed as Ex. 20) was 0.056 mg/kg.
`COc1cc(CC(=O)Nc2cccc(CCc3ccccc3)c2)ccc1OCCN` [Example 60, 4-(2-aminoethoxy)-3-methoxy-N-[3-(2-phenylethyl)phenyl]-phenylacetamide] was tested, and the “Number of wiping movements” value ([1]; concentration 500 μg/ml) was “no significant increase”, the “Number of wiping movements” value ([1]; concentration 500 μg/ml, listed as Ex. 60) was 4.2 ± 1.2 and the “Number of wiping movements” value ([1]; concentration 1000 μg/ml) was 8.4 ± 2.1. For the same molecule, the ED50 [2, 3] was at most 1 mg/kg, the inhibition in vivo at 1 mg/kg [2, 4] was 50.5% and the ED50 [2, 5] was 0.83 mg/kg. For the same molecule, the “ED50 (mg/kg po)” value ([2]; oral administration, writhing inhibition, listed as Ex. 60) was 0.68 mg/kg.
For `COc1cc(CC(=O)Nc2cccc(C3CCCCC3)c2)ccc1OCCN` [Example 61, 4-(2-aminoethoxy)-N-(3-cyclohexylphenyl)-3-methoxyphenylacetamide], the “Number of wiping movements” value ([1]; concentration 20 μg/ml) was 2.0 ± 0.8, the “Number of wiping movements” value ([1]; concentration 100 μg/ml) was 7.4 ± 2.1 and the “Number of wiping movements” value ([1]; concentration 500 μg/ml) was 15.6 ± 4.5. The inhibition in vivo at 10 mg/kg [2, 6] was 89%, the ED50 [2, 3] was 3 mg/kg and the inhibition in vivo at 1 mg/kg [2, 4] was 72.8%. It also gave an ED50 [2, 5] of 0.13 mg/kg.
`COc1cc(CC(=O)Nc2cccc(C3CCC(C(C)(C)C)CC3)c2)ccc1OCCN` (stereo not shown) [Example 62, 4-(2-aminoethoxy)-N-[3-(4-tert-butylcyclohexan-1-yl)phenyl]-3-methoxyphenylacetamide] was tested, and the “Number of wiping movements” value ([1]; concentration 500 μg/ml) was “no significant increase”, the “Number of wiping movements” value ([1]; concentration 500 μg/ml, listed as Ex. 62) was 4.6 ± 1.2 and the “Number of wiping movements” value ([1]; concentration 1000 μg/ml) was 7.6 ± 1.4. For the same molecule, the inhibition in vivo at 10 mg/kg [2, 6] was 96.1%, the inhibition in vivo at 1 mg/kg [2, 4] was 100% and the ED50 [2, 5] was 0.23 mg/kg. For the same molecule, the “ED50 (mg/kg po)” value ([2]; oral administration, writhing inhibition, listed as Ex. 62) was 0.43 mg/kg.
For `COc1cc(CC(=O)Nc2cccc(-c3cccc(F)c3)c2)ccc1OCCN` [Example 66, 4-(2-aminoethoxy)-N-[3-(3-fluorophenyl)phenyl]-3-methoxyphenylacetamide], the “Number of wiping movements” value ([1]; concentration 100 μg/ml) was 5.6 ± 2.4, the “Number of wiping movements” value ([1]; concentration 500 μg/ml) was “no significant increase” and the “Number of wiping movements” value ([1]; concentration 500 μg/ml, listed as Ex. 66) was 3.6 ± 1.6. It also gave an inhibition in vivo at 10 mg/kg [2, 6] of 100%.
With `COc1cc(CC(=O)Nc2cccc(-c3ccc(Cl)cc3)c2)ccc1OCCN` [Example 67, 4-(2-aminoethoxy)-N-[3-(4-chlorophenyl)phenyl]-3-methoxyphenylacetamide] the “Number of wiping movements” value ([1]; concentration 100 μg/ml) was 3.8 ± 1.3, the “Number of wiping movements” value ([1]; concentration 500 μg/ml) was 13.4 ± 2.8 and the inhibition in vivo at 10 mg/kg [2, 6] was 90.2%.
With `COc1cc(CC(=O)Nc2cccc(-c3ccc4c(c3)OCO4)c2)ccc1OCCN` [Example 164, 4-(2-aminoethoxy)-N-[3-(2H-benzo[d]-1,3-dioxolan-5-yl)phenyl]-3-methoxyphenylacetamide] the “Number of wiping movements” value ([1]; concentration 100 μg/ml) was 5.4 ± 2.8, the “Number of wiping movements” value ([1]; concentration 500 μg/ml) was “no significant increase” and the “Number of wiping movements” value ([1]; concentration 500 μg/ml, listed as Ex. 164) was 2.8 ± 1.7. For the same molecule, the “ED50 (mg/kg po)” value ([2]; oral administration, writhing inhibition) was 1.56 mg/kg and the “Inhibitory percentage (%)” value ([2]; writhing inhibition, orally administered at a dose of 10 mg/kg, 60 minutes before PBQ) was 99.0%.
Work on `COc1cc(CC(=O)Nc2cccc(-c3cccc(C4CCCCC4)c3)c2)ccc1OCCN` [Example 183, 4-(2-aminoethoxy)-N-[3-(3-cyclohexylphenyl)phenyl]-3-methoxyphenylacetamide] yielded an inhibition in vivo at 10 mg/kg [2, 6] of 83.5% and an ED50 [2, 3] of 3.09 mg/kg.
For `COc1cc(CC(=O)Nc2cccc(-c3ccccc3C(C)(C)C)c2)ccc1OCCN` [Example 184, 4-(2-aminoethoxy)-N-[3-(2-tert-butylphenyl)phenyl]-3-methoxyphenylacetamide], the inhibition in vivo at 10 mg/kg [2, 6] was 100%, the ED50 [2, 3] was at most 1 mg/kg and the “ED50 (mg/kg po)” value ([2]; oral administration, writhing inhibition, listed as Ex. 184) was 0.60 mg/kg.
With `COc1cc(CC(=O)Nc2cccc(-c3cccc(Oc4ccccc4)c3)c2)ccc1OCCN` [Example 186, 4-(2-aminoethoxy)-3-methoxy-N-[3-(3-phenoxyphenyl)phenyl]-phenylacetamide] the “Number of wiping movements” value ([1]; concentration 100 μg/ml) was 4.0 ± 1.1, the “Number of wiping movements” value ([1]; concentration 500 μg/ml) was 12.2 ± 2.0 and the inhibition in vivo at 10 mg/kg [2, 6] was 84.3%. The ED50 [2, 3] was 1.83 mg/kg.
Work on `COc1cc(CC(=O)Nc2cccc([C@H]3CC[C@@H](C(C)(C)C)CC3)c2)ccc1OCCN` [Example 194, 4-(2-aminoethoxy)-N-[3-[(cis)-4-tert-butylcyclohexan-1-yl]-phenyl]-3-methoxyphenylacetamide] yielded an inhibition in vivo at 10 mg/kg [2, 6] of 96.2% and an ED50 [2, 3] of 1.05 mg/kg.
With `COc1cc(CC(=O)Nc2cccc([C@H]3CC[C@H](C(C)(C)C)CC3)c2)ccc1OCCN` [Example 195, 4-(2-aminoethoxy)-N-[3-[(trans)-4-tert-butylcyclohexan-1-yl]-phenyl]-3-methoxyphenylacetamide] the inhibition in vivo at 10 mg/kg [2, 6] was 77.7%.
`COc1cc(CC(=O)Nc2cccc(N3CCCCC3)c2)ccc1OCCN` [Example 197, 4-(2-aminoethoxy)-3-methoxy-N-[3-(piperidin-1-yl)phenyl]-phenylacetamide] was tested, and the inhibition in vivo at 10 mg/kg [2, 6] was 89.1% and the ED50 [2, 3] was 5.26 mg/kg.
With `COc1cc(CC(=O)Nc2cccc(N3CCCC(C4CCCCC4)C3)c2)ccc1OCCN` (stereo not shown) [Example 199, 4-(2-aminoethoxy)-N-[3-(3-cyclohexylpiperidin-1-yl)phenyl]-3-methoxyphenylacetamide] the inhibition in vivo at 10 mg/kg [2, 6] was 71.6%.
Molecule `COc1cc(CC(=O)Nc2cccc(N3CCCC(c4ccccc4)C3)c2)ccc1OCCN` (stereo not shown) [Example 200, 4-(2-aminoethoxy)-3-methoxy-N-[3-(3-phenylpiperidin-1-yl)-phenyl]phenylacetamide] has an inhibition in vivo at 10 mg/kg [2, 6] of 84.2%.
`COc1cc(CC(=O)Nc2cccc(N3CCCC4(CCCCC4)C3)c2)ccc1OCCN` [Example 201, 4-(2-aminoethoxy)-3-methoxy-N-[3-(2-azaspiro[5, 5]undecan-2-yl)phenyl]phenylacetamide] was tested, and the inhibition in vivo at 10 mg/kg [2, 6] was 100% and the ED50 [2, 3] was 2.04 mg/kg.
`COc1cc(CC(=O)Nc2cccc(CCc3cccc(C)c3)c2)ccc1OCCN` [Example 217, 4-(2-aminoethoxy)-3-methoxy-N-[3-[2-(3-methylphenyl)ethyl]-phenyl]phenylacetamide] gave an inhibition in vivo at 10 mg/kg [2, 6] of 96.3% and an ED50 [2, 3] of 1.13 mg/kg.
For `COc1cc(CC(=O)Nc2cccc(CCc3ccccc3F)c2)ccc1OCCN` [Example 219, 4-(2-aminoethoxy)-3-methoxy-N-[3-[2-(2-fluorophenyl)ethyl]-phenyl]phenylacetamide], the inhibition in vivo at 10 mg/kg [2, 6] was 94% and the ED50 [2, 3] was 1.46 mg/kg.
Molecule `COc1cc(CC(=O)Nc2ccc3ccn(Cc4ccccc4)c3c2)ccc1OCCN` [Example 238, 4-(2-aminoethoxy)-3-methoxy-N-[1-benzylindol-6-yl]phenylacetamide] has an inhibition in vivo at 1 mg/kg [2, 4] of 70.2% and an ED50 [2, 5] of 0.37 mg/kg.
With `COc1cc(CC(=O)Nc2ccc3c(c2)C(=O)C(Cc2ccccc2)CC3)ccc1O` (stereo not shown) [Example 249, 4-hydroxy-3-methoxy-N-[1-oxo-2-phenylmethyl-1,2,3,4-tetrahydronaphthalen-7-yl]phenylacetamide] the inhibition in vivo at 1 mg/kg [2, 4] was 89.4% and the “ED50 (mg/kg sc)” value ([2]; subcutaneous administration, writhing inhibition, listed as Ex. 249) was 0.043 mg/kg.
